# Experiments:
# Format in all cases: physicochemical
# [1] = Qualitative analysis of dental fiber doping (fluorescence under blue lamp)
# Excerpt: Commercially available dental fibers were dipped into solutions of Eosin […], or 0.1 g/L) for 10 seconds. The fibers were taken out and observed for color, then put under a blue lamp and the fluorescence was observed qualitatively. […] Dental fibers were dipped into solutions of fluorescein (50 […]) for 10 seconds. The fibers were then taken out and observed for color, then put under a blue lamp and the fluorescence was observed qualitatively. […] Dental fibers were dipped into solutions of fluorescein:Eosin […] total chromophore) solution for 10 seconds again. The fibers were then taken out and observed for color, then put under a blue lamp and the fluorescence was observed qualitatively.
# [2] = Effect of addition of a lubricant (lurol oil) on the fluorescence emitted from Eosin Y solution; details: 320 μL lurol oil added to 2 mL of 109 μg/g Eosin Y in water
# Protocol: The fluorescence of these two solutions was measured to determine if the lurol oil had any effect (FIG. 4).
# [3] = Effect of addition of a lubricant on the fluorescence emission of photoactivatable (doped) fibers; details: same concentration, lurol oil added, FIG. 5B
# Excerpt: In the case of low concentrations of chromophore it can slightly red shift, and reduces bleaching time considerably. In higher concentrations of chromophore it red shifts, as well as increase fluorescence. The most effect seems to be around 10 g/L of lurol oil. Initially the fluorescence of Eosin Y doped fibers was 0.01 (FIG. 5A), but with the lurol oil added the fluorescence is boosted to 0.7. A comparison was done of Eosin Y and Fluorescein at the same concentration with lurol oil added.
Structure (SMILES),"fluorescence observed qualitatively under blue lamp ([1]; commercial dental fibers dipped 10 seconds, 300-100 g/L solutions)","fluorescence observed qualitatively under blue lamp ([1]; dental fibers dipped 10 seconds, 10 g/L solution)","fluorescence observed qualitatively under blue lamp ([1]; dental fibers dipped 10 seconds, 50 g/L solution)",photodegradation of Eosin Y solution with lurol oil [2],shift of the fluorescence of the solution with lurol oil [2],fluorescence of Eosin Y solution with lurol oil versus without ([2]; FIG. 4),photo-degradation compared with Eosin Y [3]
"O=C([O-])c1ccccc1-c1c2cc(Br)c(=O)c(Br)c-2oc2c(Br)c([O-])c(Br)cc12.[Na+].[Na+] [Eosin Y, 2′,4′,5′,7′-tetrabromo-fluorescein, dianion]",little fluorescence,significant increase in fluorescence,showed fluorescence,barely photodegraded,red shifted,almost twice as fluorescent,
O=C1OC2(c3ccc(O)cc3Oc3cc(O)ccc32)c2ccccc21 [fluorescein],,,,,,,photo-degrades faster
